{"source": "ChEMBL document CHEMBL1140740", "about": "“Discovery of benzisoxazoles as potent inhibitors of chaperone heat shock protein 90” (J Med Chem, 2008)", "key": {"[1]": {"biological_target": "Heat shock protein HSP 90-alpha (Homo sapiens, UniProt P07900)", "description": "Inhibition of human Hsp90-alpha by fluorescence polarization assay"}, "[2]": {"test_system": "HCT-116", "assay": "Antiproliferation activity against human HCT116 cells", "format": "functional, cell-based"}, "[3]": {"test_system": "SK-BR-3", "assay": "Antiproliferation activity against human SKBR3 cells", "format": "functional, cell-based"}, "[4]": {"test_system": "LNCaP", "assay": "Antiproliferation activity against human LnCap cells", "format": "functional, cell-based"}, "[5]": {"test_system": "DU-145", "assay": "Antiproliferation activity against human DU145 cells", "format": "functional, cell-based"}, "[6]": {"assay": "Antiproliferation activity against human H157 cells", "format": "functional, cell-based", "settings": "NCI-H157"}, "[7]": {"test_system": "SK-BR-3", "assay": "Degradation of HER2 in human SKBR3 cells", "format": "functional, cell-based"}, "[8]": {"test_system": "LNCaP", "assay": "Androgen receptor degradation in human LnCAP cells", "format": "functional, cell-based"}, "[9]": {"test_system": "HCT-116", "assay": "Antiproliferation activity against human HCT116 cells in presence of geldanamycin", "format": "functional, cell-based"}, "[10]": {"biological_target": "Serine/threonine-protein kinase B-raf (Homo sapiens, UniProt P15056)", "sequence (P15056 whole entry)": "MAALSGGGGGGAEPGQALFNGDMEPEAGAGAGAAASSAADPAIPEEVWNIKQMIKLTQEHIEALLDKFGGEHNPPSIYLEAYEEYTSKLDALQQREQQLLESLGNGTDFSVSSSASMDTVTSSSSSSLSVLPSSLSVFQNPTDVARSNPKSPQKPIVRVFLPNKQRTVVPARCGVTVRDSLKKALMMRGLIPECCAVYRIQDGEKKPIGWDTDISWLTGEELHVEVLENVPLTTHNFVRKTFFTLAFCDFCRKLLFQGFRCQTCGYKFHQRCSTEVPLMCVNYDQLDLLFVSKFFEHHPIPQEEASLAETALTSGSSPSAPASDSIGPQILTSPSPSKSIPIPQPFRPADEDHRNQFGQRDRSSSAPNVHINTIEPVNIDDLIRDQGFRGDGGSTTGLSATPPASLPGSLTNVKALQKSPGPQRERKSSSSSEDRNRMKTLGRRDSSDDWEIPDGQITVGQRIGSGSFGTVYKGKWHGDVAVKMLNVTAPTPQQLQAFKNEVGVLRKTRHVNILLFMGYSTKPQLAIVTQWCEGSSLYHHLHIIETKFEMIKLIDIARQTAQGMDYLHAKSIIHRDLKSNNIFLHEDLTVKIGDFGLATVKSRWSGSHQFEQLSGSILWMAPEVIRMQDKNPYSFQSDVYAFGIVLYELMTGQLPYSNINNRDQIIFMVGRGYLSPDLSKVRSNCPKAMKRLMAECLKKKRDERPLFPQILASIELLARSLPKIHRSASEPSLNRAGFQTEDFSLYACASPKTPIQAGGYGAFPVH", "assay": "Inhibition of B-Raf"}, "[11]": {"test_system": "K562", "assay": "Upregulation of Hsp70 in K562 cells", "format": "functional, cell-based", "settings": "Homo sapiens"}, "[12]": {"biological_target": "T1, Protein kinase C epsilon type (Homo sapiens, UniProt Q02156)", "T1 sequence (Q02156 whole entry)": "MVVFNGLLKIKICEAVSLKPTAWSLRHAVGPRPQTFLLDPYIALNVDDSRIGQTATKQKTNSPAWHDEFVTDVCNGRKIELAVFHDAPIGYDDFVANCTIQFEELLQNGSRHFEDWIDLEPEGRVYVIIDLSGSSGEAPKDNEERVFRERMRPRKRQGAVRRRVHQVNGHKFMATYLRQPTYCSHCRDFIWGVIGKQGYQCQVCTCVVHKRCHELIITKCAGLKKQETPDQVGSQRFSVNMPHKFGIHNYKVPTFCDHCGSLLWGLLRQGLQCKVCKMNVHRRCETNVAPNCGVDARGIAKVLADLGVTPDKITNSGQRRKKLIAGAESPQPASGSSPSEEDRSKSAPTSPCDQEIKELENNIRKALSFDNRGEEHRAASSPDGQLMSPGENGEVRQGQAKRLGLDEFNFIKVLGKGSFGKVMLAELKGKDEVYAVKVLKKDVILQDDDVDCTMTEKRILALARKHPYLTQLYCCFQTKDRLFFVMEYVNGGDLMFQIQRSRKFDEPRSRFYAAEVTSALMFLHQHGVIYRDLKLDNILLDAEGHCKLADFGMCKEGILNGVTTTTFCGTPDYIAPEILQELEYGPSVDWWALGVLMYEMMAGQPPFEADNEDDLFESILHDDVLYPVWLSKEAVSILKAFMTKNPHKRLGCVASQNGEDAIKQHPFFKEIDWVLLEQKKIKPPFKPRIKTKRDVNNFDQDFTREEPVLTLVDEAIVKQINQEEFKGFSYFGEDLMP", "assay": "Inhibition of PKC epsilon"}, "[13]": {"biological_target": "Protein kinase C theta type (Homo sapiens, UniProt Q04759)", "sequence (Q04759 whole entry)": "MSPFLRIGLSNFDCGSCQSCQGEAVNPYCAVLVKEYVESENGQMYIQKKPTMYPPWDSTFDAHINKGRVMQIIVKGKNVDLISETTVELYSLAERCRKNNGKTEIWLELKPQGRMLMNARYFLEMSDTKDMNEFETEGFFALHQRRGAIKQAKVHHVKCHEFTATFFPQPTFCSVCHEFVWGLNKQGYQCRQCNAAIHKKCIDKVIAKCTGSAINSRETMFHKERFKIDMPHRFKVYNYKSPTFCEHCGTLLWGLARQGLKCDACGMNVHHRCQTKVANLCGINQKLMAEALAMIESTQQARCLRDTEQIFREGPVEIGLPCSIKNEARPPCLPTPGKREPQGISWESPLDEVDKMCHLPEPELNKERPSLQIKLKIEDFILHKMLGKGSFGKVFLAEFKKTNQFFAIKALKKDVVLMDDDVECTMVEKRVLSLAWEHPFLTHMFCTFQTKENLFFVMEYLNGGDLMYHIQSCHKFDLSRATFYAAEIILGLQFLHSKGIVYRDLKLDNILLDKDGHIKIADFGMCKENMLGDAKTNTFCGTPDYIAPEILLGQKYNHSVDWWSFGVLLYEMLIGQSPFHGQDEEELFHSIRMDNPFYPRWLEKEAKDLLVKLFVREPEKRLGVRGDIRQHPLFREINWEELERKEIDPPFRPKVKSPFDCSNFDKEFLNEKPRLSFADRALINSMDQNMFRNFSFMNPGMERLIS", "assay": "Inhibition of PKC theta"}, "[14]": {"biological_target": "Phosphatidylinositol 4,5-bisphosphate 3-kinase catalytic subunit alpha isoform (Homo sapiens, UniProt P42336)", "sequence (P42336 whole entry, canonical isoform)": "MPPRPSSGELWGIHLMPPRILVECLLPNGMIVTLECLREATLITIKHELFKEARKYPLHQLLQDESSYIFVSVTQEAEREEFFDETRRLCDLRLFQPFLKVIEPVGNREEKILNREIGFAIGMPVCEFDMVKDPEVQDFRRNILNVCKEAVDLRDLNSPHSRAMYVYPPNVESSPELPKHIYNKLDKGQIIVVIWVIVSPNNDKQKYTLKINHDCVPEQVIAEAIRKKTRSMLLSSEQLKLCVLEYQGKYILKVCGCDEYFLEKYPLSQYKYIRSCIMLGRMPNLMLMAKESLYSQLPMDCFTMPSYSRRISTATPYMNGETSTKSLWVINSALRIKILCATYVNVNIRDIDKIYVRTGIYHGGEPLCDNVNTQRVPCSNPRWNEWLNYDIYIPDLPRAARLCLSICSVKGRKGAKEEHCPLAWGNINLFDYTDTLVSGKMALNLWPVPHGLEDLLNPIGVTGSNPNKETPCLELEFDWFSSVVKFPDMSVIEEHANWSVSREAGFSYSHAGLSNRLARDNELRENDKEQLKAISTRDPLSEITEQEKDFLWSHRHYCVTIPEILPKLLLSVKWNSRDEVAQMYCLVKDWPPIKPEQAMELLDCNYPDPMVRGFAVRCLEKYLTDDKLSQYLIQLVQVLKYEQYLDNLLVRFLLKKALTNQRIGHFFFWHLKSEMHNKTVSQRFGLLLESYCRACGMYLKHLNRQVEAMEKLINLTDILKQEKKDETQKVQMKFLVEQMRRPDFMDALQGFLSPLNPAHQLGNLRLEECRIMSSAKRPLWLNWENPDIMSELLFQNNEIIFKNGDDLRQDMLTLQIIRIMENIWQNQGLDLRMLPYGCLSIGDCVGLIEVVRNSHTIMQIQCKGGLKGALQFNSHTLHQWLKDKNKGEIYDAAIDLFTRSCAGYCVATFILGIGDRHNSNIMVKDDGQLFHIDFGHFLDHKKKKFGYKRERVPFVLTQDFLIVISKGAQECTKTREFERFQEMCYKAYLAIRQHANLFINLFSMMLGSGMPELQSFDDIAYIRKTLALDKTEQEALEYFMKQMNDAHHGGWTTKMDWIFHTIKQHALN", "assay": "Inhibition of P13K alpha"}, "[15]": {"biological_target": "MAP kinase-activated protein kinase 2 (Homo sapiens, UniProt P49137)", "sequence (P49137 whole entry)": "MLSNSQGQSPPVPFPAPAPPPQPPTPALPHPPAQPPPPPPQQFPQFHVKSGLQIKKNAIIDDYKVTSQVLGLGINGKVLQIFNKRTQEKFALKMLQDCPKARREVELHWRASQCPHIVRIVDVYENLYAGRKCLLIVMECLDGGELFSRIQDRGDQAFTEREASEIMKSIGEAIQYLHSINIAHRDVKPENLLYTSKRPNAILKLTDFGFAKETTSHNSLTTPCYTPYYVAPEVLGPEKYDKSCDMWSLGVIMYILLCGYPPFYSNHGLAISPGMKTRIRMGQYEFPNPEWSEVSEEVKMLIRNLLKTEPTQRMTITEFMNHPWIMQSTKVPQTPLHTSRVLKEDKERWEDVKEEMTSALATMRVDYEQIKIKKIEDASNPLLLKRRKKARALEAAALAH", "assay": "Inhibition of MK2"}, "[16]": {"biological_target": "T2, Inhibitor of nuclear factor kappa-B kinase subunit beta (Homo sapiens, UniProt O14920)", "T2 sequence (O14920 whole entry)": "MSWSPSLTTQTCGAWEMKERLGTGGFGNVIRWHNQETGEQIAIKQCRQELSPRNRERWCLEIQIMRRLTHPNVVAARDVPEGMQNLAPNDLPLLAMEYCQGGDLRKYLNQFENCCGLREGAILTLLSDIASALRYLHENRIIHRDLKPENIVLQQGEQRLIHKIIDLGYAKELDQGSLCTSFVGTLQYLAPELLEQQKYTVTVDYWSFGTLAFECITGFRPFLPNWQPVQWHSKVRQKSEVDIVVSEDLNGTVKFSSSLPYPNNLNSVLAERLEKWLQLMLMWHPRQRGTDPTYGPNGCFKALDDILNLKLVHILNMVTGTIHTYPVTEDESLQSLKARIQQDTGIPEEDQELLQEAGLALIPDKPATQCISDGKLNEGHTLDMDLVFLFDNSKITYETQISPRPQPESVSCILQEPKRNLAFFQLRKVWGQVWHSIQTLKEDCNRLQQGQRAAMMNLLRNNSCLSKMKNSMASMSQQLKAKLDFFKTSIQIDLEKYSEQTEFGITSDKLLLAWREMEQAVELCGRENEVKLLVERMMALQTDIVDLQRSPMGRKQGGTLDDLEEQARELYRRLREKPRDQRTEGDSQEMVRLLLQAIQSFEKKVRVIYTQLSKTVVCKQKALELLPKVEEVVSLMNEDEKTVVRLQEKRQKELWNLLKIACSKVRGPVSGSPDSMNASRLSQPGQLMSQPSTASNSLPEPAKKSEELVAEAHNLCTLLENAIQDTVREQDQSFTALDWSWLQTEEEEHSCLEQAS", "assay": "Inhibition of IKK2"}, "[17]": {"biological_target": "Activin receptor type-2B (Homo sapiens, UniProt Q13705)", "sequence (Q13705 whole entry)": "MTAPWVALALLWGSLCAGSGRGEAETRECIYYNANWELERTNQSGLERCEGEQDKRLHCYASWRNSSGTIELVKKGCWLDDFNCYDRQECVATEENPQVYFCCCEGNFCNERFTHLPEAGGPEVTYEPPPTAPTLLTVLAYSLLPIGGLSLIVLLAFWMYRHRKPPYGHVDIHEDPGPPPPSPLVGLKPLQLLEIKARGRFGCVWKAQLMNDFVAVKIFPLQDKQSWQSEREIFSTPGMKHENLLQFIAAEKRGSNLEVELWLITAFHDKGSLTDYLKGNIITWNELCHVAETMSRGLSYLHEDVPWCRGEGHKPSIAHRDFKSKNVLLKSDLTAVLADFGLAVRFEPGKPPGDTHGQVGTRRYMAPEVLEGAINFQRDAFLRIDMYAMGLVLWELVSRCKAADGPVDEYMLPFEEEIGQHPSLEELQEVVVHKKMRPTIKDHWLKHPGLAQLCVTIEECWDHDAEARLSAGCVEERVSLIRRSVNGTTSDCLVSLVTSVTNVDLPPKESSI", "assay": "Inhibition of ActR2B"}, "[18]": {"biological_target": "Serine/threonine-protein kinase mTOR (Homo sapiens, UniProt P42345)", "assay": "Inhibition of mTOR"}, "[19]": {"test_system": "K562", "assay": "Downregulation of Bcr-Abl in human K562 cells", "format": "functional, cell-based"}, "[20]": {"test_system": "K562", "assay": "Degradation of actin in human K562 cells", "format": "functional, cell-based"}, "[21]": {"assay": "Aqueous solubility at pH 7.4", "format": "physicochemical"}, "[22]": {"test_system": "HCT-116", "assay": "Antiproliferation activity against human HCT116 cells"}}, "note": "The source made the active and inactive calls. No cut-off for these calls is given here."}
{"smiles": "COc1ccc2c(-c3cc(Cl)c(OC)cc3OC)noc2c1", "values": [{"measurement": "IC50", "setting": "[1]", "value": "> 20000", "unit": "nM"}]}
{"smiles": "CN1CCN(c2ccc3onc(-c4cc(Cl)c(O)cc4O)c3c2)CC1", "values": [{"measurement": "IC50", "setting": "[2]", "value": 9400, "unit": "nM"}, {"measurement": "IC50", "setting": "[1]", "value": 800, "unit": "nM"}]}
{"smiles": "COc1cc(OC)c(-c2noc3ccc(NCCN4CCOCC4)cc23)cc1Cl", "values": [{"measurement": "IC50", "setting": "[1]", "value": "> 20000", "unit": "nM"}]}
{"smiles": "Oc1ccc2c(-c3cc(Cl)c(O)cc3O)noc2c1", "values": [{"measurement": "IC50", "setting": "[1]", "value": 60, "unit": "nM"}]}
{"smiles": "Oc1cc(O)c(-c2noc3ccc(NCCN4CCOCC4)cc23)cc1Br", "values": [{"measurement": "IC50", "setting": "[1]", "value": 40, "unit": "nM"}]}
{"smiles": "Oc1cc(O)c(-c2noc3ccc(NCCN4CCOCC4)cc23)cc1Cl", "values": [{"measurement": "IC50", "setting": "[2]", "value": 280, "unit": "nM"}, {"measurement": "IC50", "setting": "[3]", "value": 370, "unit": "nM"}, {"measurement": "IC50", "setting": "[4]", "value": 170, "unit": "nM"}, {"measurement": "IC50", "setting": "[5]", "value": 290, "unit": "nM"}, {"measurement": "IC50", "setting": "[6]", "value": 230, "unit": "nM"}, {"measurement": "IC50", "setting": "[7]", "value": 330, "unit": "nM"}, {"measurement": "IC50", "setting": "[8]", "value": 330, "unit": "nM"}, {"measurement": "IC50", "setting": "[9]", "value": 50, "unit": "nM"}, {"measurement": "IC50", "setting": "[10]", "value": "> 20000", "unit": "nM"}, {"measurement": "Activity", "setting": "[11]", "value": "Active"}, {"measurement": "IC50", "setting": "[12]", "value": "> 20000", "unit": "nM"}, {"measurement": "IC50", "setting": "[13]", "value": "> 20000", "unit": "nM"}, {"measurement": "IC50", "setting": "[14]", "value": "> 20000", "unit": "nM"}, {"measurement": "IC50", "setting": "[15]", "value": "> 20000", "unit": "nM"}, {"measurement": "IC50", "setting": "[16]", "value": "> 20000", "unit": "nM"}, {"measurement": "IC50", "setting": "[17]", "value": "> 20000", "unit": "nM"}, {"measurement": "IC50", "setting": "[18]", "value": "> 20000", "unit": "nM"}, {"measurement": "Activity", "setting": "[19]", "value": "Active"}, {"measurement": "Activity", "setting": "[20]", "value": "inactive"}]}
{"smiles": "Oc1ccc2c(-c3cc(Br)c(O)cc3O)noc2c1", "values": [{"measurement": "IC50", "setting": "[7]", "value": "≥ 20000", "unit": "nM"}, {"measurement": "solubility", "setting": "[21]", "value": 4, "unit": "µg/mL"}, {"measurement": "IC50", "setting": "[22]", "value": "≥ 20000", "unit": "nM"}]}
{"smiles": "Oc1ccc(-c2noc3cc(O)ccc23)c(O)c1", "values": [{"measurement": "IC50", "setting": "[1]", "value": 15200, "unit": "nM"}]}
